This note sets out measurements from US7101900B2, “Benzyl amidoxime derivatives, intermediate products and method for their production and use as fungicides” (BASF Aktiengesellschaft, priority 1999, dated 2006).

The test system of test [1] is powdery mildew of wheat (Erysiphe graminis forma specialis tritici). Briefly: Activity against mildew of wheat (protective spray test on wheat seedlings). Format: in vivo. The following applies: wheat seedlings c.v. Kanzler, dusted with spores 24 hours after spray coating dried, visual, total leaf area, after 7 days, untreated 95. Here is the method: Activity Against Mildew of Wheat
Leaves of wheat seedlings c.v. “Kanzler” which had been grown in pots were sprayed to run off point with an aqueous preparation of active compound which had been prepared from a stock solution comprising 10% of active compound, 63% of cyclohexanone and 27% of emulsifier, and, 24 hours after the spray coating had dried on, dusted with spores of powdery mildew of wheat (Erysiphe graminis forma specialis tritici). The test plants were then placed in a greenhouse at 20–24° C. and 60–90% relative atmospheric humidity. After 7 days, the extent of the mildew development was determined visually in percent infection of the total leaf area.

Test [2] has as its system cucumber mildew (Sphaerotheca fuliginea). The experiment in a line: Protective activity against cucumber mildew (spray test on cucumber seedlings). Type of test: in vivo. The following applies: cucumber seedlings c.v. Chinesische Schlange, inoculated 20 hours after spray coating dried, visual, total leaf area, after 20 days, untreated 90. Here is the method:
Protective Activity Against Cucumber Mildew
At the two-leaf stage, leaves of cucumber seedlings c.v. “Chinesische Schlange” which had been grown in pots were sprayed to run off point with an aqueous preparation of active compound which had been prepared from a stock solution comprising 10% of active compound, 63% of cyclohexanone and 27% of emulsifier. 20 hours after the spray coating had dried on, the plants were inoculated with an aqueous spore suspension of cucumber mildew (Sphaerotheca fuliginea). The plants were then cultivated in a greenhouse at 20–24° C. and 60–80% relative atmospheric humidity for 20 days. The extent of the mildew development was then determined visually in % infection of the total leaf area.

In the case of `O=C(Cc1ccccc1)NC(Cc1c(Cl)cccc1Cl)=NOCC1CC1` [No. 1, O-cyclopropylmethyl N-phenylacetyl-(2,6-dichlorophenyl)-acetamidoxime], the “% infection of the leaves after application of an aqueous preparation comprising 16 ppm of active compound” value in test [1] was 3%. In test [2], the “% infection of the leaves after application of an aqueous preparation comprising 63 ppm of active compound” value was 10%.

As to `O=C(Cc1ccccc1)NC(Cc1c(F)cccc1Cl)=NOCC1CC1` [No. 2, O-cyclopropylmethyl N-phenylacetyl-(2-chloro-6-fluorophenyl)-acetamidoxime], the “% infection of the leaves after application of an aqueous preparation comprising 16 ppm of active compound” value in test [1] was 3%. The “% infection of the leaves after application of an aqueous preparation comprising 63 ppm of active compound” value in test [2] is given as 10%.
